Results on four compounds are retold here after US6740641B2 (priority 2001, dated 2004).

What all share (assay): biochemical
In assay [1] the target is T1, recombinant delta opiod receptor expressed in CHO-K1 cells (Homo sapiens, UniProt P41143).
T1 construct: purchased Receptor Biology Inc., Beltsville, Md; host or cells: CHO-K1
As to conditions: 0.2 nM [3H]-naltrindole, Table 1; read-out: Delta-Receptor Binding Affinity Ki.

Assay [2] has as its target T2, recombinant kappa opiod receptor expressed in HEK 293 cells (Homo sapiens, UniProt P41145).
T2 construct: purchased Receptor Biology Inc; host or cells: HEK 293
It is filed as binding.

The target of assay [3] is T3, recombinant mu-opioid receptor expressed in CHO-K1 cells (Homo sapiens, UniProt P35372).
T3 construct: purchased Receptor Biology Inc; host or cells: CHO-K1
T3 sequence (P35372 whole entry): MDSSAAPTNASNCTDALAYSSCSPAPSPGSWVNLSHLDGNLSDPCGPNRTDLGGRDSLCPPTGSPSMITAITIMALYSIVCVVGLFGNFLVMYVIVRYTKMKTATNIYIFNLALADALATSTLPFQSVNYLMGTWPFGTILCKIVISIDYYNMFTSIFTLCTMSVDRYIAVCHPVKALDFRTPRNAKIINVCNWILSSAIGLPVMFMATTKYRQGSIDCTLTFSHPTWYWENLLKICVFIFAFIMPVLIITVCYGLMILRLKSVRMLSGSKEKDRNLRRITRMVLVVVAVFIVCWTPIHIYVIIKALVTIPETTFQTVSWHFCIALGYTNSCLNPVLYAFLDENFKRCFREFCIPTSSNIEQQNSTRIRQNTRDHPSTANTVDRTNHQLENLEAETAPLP
It is filed as binding. As to conditions: for selectivity for mu opioid receptors relative to delta and kappa opioid receptors: from Ki data of Table 4.

[4] abbreviates: 0.15 nM [3H]-bremazocine, Table 2, read-out: Kappa-Receptor Binding Affinity Ki.
Where [5] appears, read: 0.2 nM [3H]-diprenorphine, Table 3, read-out: Mu-Receptor Binding Affinity Ki.

Each structure is given as a SMILES string. Read-outs that look alike come from different tables or passages of the source.

T2 sequence (P41145 whole entry): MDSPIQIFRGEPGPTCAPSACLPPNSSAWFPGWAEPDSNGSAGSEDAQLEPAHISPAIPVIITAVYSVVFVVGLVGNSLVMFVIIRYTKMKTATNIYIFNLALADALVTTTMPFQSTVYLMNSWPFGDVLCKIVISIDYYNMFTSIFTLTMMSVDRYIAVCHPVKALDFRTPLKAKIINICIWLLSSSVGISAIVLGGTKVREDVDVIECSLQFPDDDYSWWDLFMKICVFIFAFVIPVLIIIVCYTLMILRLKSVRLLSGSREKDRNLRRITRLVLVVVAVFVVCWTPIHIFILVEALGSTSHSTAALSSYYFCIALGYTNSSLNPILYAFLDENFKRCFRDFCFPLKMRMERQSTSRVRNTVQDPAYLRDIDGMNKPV
T1 sequence (P41143 whole entry): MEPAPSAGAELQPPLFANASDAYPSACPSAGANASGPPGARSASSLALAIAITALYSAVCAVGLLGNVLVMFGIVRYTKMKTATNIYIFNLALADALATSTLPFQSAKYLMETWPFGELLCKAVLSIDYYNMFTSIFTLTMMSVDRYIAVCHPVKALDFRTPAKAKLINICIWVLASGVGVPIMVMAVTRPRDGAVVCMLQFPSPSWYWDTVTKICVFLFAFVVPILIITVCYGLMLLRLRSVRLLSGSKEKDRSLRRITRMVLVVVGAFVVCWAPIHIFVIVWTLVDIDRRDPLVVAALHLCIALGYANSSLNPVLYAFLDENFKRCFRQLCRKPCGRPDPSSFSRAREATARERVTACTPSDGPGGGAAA

Consider `CN1CCC23c4c5ccc(O)c4O[C@H]2[C@H](OC2OC(CO)C(O)C(O)C2O)CCC3C1C5` (stereo partly drawn) [Dihydroisomorphine-6-glucoside, 6-O-Glucosyldihydroisomorphine], for which the Ki was found to be 868 nM in assay [1], 440 nM in assay [2] (setting [4]) and 4.7 nM in assay [3] (setting [5]). In assay [3], the “mu selectivity compared with morphine sulfate” value is recorded as “higher than that of morphine sulfate”. Further, the “selectivity for mu opioid receptors relative to delta and kappa opioid receptors” value in assay [3] is “high selectivity for mu opioid receptors”.
`CN1CC[C@]23c4c5ccc(O)c4O[C@H]2[C@@H](O)CC[C@H]3[C@H]1C5` [Dihydromorphine, reference compound]: in assay [3], the Ki amounted to 0.39 nM.
Turning to `CN1CC[C@]23c4c5ccc(OC6O[C@H](CO)[C@@H](O)[C@H](O)[C@H]6O)c4O[C@H]2C(=O)CC[C@H]3[C@H]1C5` (stereo partly drawn) [Hydromorphone-3-glucoside, 3-O-Glucosylhydromorphone], the Ki in assay [1] was 4500 nM; in assay [2] (setting [4]) it was 2400 nM; in assay [3] (setting [5]), 51 nM. Also, the “mu selectivity compared with morphine sulfate” value in assay [3] is “higher than that of morphine sulfate”. Besides, in assay [3], the “selectivity for mu opioid receptors relative to delta and kappa opioid receptors” value is given as “high selectivity for mu opioid receptors”.
Turning to `Oc1ccc2c3c1O[C@H]1c4oc5ccccc5c4C[C@@]4(O)[C@@H](C2)N(CC2CC2)CC[C@]314` [Naltriben, reference compound], the Ki in assay [2] was determined as 2.4 nM.
